Where a name gives a salt, the structure may show the parent alone.

The values below come from US12629374B2, “Antimalarial agents” (Merck Sharp & Dohme LLC, priority 2020, dated 2026).

The first test has as its system ring stage parasites. The experiment in a line: Parasite growth potency assay, 72 hours, LDH readout. Conditions: 72 h, parasite growth measured by LDH assay after 72 hours at 37° C.; 0.7% rings, 2% haematocrit; read-out: EC50. The format is cell-based. Put shortly:
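Parasite growth was quantified by LDH assay after a −80 °C freeze-thaw. Before that, compound was incubated for 72 h at 37 °C under humidified gas with ring-stage cultures adjusted to 0.7% parasitemia and 2% haematocrit in serum- and albumax-supplemented RPMI-Hepes.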
As usually defined, the EC50 is the concentration at which the effect is half-maximal. `CCC1(CC)CC(=O)N(Cc2cccc(C(=O)N[C@H]3CCOc4ccccc43)c2)C(=N)N1` [Example 11, [1-[[3-[[(4S)-chroman-4-yl]carbamoyl]phenyl]methyl]-4,4-diethyl-6-oxo-hexahydropyrimidin-2-ylidene]ammonium; 2,2,2-trifluoroacetate]: the EC50 stood at 1.5 nM.
Turning to `CC1(C)CC(=O)N(Cc2cccc(C(=O)N[C@H]3CC(C)(C)Oc4ccccc43)c2)C(=N)N1` [Example 198, [1-[[3-[[(4S)-2,2-dimethylchroman-4-yl]carbamoyl]phenyl]methyl]-4,4-dimethyl-6-oxo-hexahydropyrimidin-2-ylidene]ammonium; 2,2,2-trifluoroacetate], the EC50 was found to be 17 nM.
On the same count and under the same terms, to `CCC1(CC)CC(=O)N([C@H](C)c2cccc(C(=O)N[C@@H]3c4ccccc4OC(C)(C)[C@H]3O)c2)C(=N)N1` [Example 193, [4,4-diethyl-1-[(1R)-1-[3-[[(3S,4R)-3-hydroxy-2,2-dimethyl-chroman-4-yl]carbamoyl]phenyl]ethyl]-6-oxo-hexahydropyrimidin-2-ylidene]ammonium; 2,2,2-trifluoroacetate] belongs 0.6 nM; to `COCC[C@H](c1cccc(C(=O)N[C@@H]2c3ccccc3C[C@H]2O)c1)N1C(=N)NC(C)(C)CC1=O` [Example 179, [1-[(1R)-1-[3-[[(1R,2R)-2-hydroxyindan-1-yl]carbamoyl]phenyl]-3-methoxy-propyl]-4,4-dimethyl-6-oxo-hexahydropyrimidin-2-ylidene]ammonium; 2,2,2-trifluoroacetate], 8.3 nM; to `CCC1(CC)NC(=N)N(Cc2cc(F)cc(C(=O)N[C@@H]3c4ccccc4C[C@H]3O)c2)C(=O)C1C` (stereo partly drawn) [Example 48, [4,4-diethyl-1-[[3-fluoro-5-[[(1R,2R)-2-hydroxyindan-1-yl]carbamoyl]phenyl]methyl]-5-methyl-6-oxo-hexahydropyrimidin-2-ylidene]ammonium; 2,2,2-trifluoroacetate], 5.2 nM.
In the case of `CCC1(CC)CC(=O)N([C@H](c2cccc(C(=O)N[C@H]3CCOc4ccccc43)c2)c2cncs2)C(=N)N1` (single isomer, unassigned) [Example 85B, trifluoroacetate], the EC50 is 2.1 nM.
Still for that read-out and setting: to `CCC1(CC)CC(=O)N(Cc2cccc(C(=O)N[C@@H]3c4ccccc4OCC3(C)C)c2)C(=N)N1` (stereo in doubt) [Example 216, 3-[(4,4-diethyl-2-imino-6-oxo-hexahydropyrimidin-1-yl)methyl]-N-(3,3-dimethylchroman-4-yl)benzamide] belongs 0.5 nM.
With `CC#CCC[C@H](c1cccc(C(=O)N[C@H]2CCOc3ccccc32)c1)N1C(=N)NC(CC)(CC)CC1=O` [Example 74, [1-[1-[3-[[(4S)-chroman-4-yl]carbamoyl]phenyl]hex-4-ynyl]-4,4-diethyl-6-oxo-hexahydropyrimidin-2-ylidene]ammonium; 2,2,2-trifluoroacetate], the EC50 amounted to 0.9 nM.
On the same count and under the same terms, then `CCC1(CC)CC(=O)N(Cc2cccc(C(=O)N[C@@H]3CC(C)(C)Oc4cccc(F)c43)c2)C(=N)N1` (stereo in doubt) [Example 94B, [4,4-diethyl-1-[[3-[(5-fluoro-2,2-dimethyl-chroman-4-yl)carbamoyl]phenyl]methyl]-6-oxo-hexahydropyrimidin-2-ylidene]ammonium; 2,2,2-trifluoroacetate], with 72.5 nM; and `CCC1(CC)NC(=N)N(Cc2cc(F)cc(C(=O)N[C@H]3CCOc4ccccc43)c2)C(=O)C1C` (stereo partly drawn) [Example 42, [1-[[3-[[(4S)-chroman-4-yl]carbamoyl]-5-fluoro-phenyl]methyl]-4,4-diethyl-5-methyl-6-oxo-hexahydropyrimidin-2-ylidene]ammonium; 2,2,2-trifluoroacetate], with 10.3 nM.
The same measure, in the same setting: to `CCC1(CC)CC(=O)N([C@H](CCOC(F)F)c2cccc(C(=O)N[C@H]3CC(C)(C)Oc4ccccc43)c2)C(=N)N1` [Example 160, [1-[3-(difluoromethoxy)-1-[3-[[(4S)-2,2-dimethylchroman-4-yl]carbamoyl]phenyl]propyl]-4,4-diethyl-6-oxo-hexahydropyrimidin-2-ylidene]ammonium; 2,2,2-trifluoroacetate] belongs 0.5 nM; to `C#CCCC[C@H](c1cccc(C(=O)N[C@H]2CCOc3ccccc32)c1)N1C(=N)NC(CC)(CC)CC1=O` [Example 210A, [1-[1-[3-[[(4S)-chroman-4-yl]carbamoyl]phenyl]hex-5-ynyl]-4,4-diethyl-6-oxo-hexahydropyrimidin-2-ylidene]ammonium; 2,2,2-trifluoroacetate], 0.7 nM.
As to `CC[C@]1(C)CC(=O)N([C@H](C)c2cccc(C(=O)NC3c4ccccc4OC(C)(C)C3(C)O)c2)C(=N)N1` (stereo partly drawn) [Example 225, 3-[(1R)-1-[(4R)-4-ethyl-2-imino-4-methyl-6-oxo-hexahydropyrimidin-1-yl]ethyl]-N-(3-hydroxy-2,2,3-trimethyl-chroman-4-yl)benzamide], the EC50 worked out at 0.32 nM.
Consider `CCC1(CC)CC(=O)N(Cc2cccc(C(=O)N[C@@H]3c4ccccc4OC3(C)C)c2)C(=N)N1` (stereo in doubt) [Example 186, [1-[[3-[(2,2-dimethyl-3H-benzofuran-3-yl)carbamoyl]phenyl]methyl]-4,4-diethyl-6-oxo-hexahydropyrimidin-2-ylidene]ammonium; 2,2,2-trifluoroacetate], for which the EC50 amounted to 10.9 nM.
Still for that read-out and setting: then `CCC1(CC)CC(=O)N([C@@H](c2cccc(C(=O)N[C@@H]3c4ccccc4C[C@H]3O)c2)C23CC(C2)C3)C(=N)N1` [Example 34, [1-[1-bicyclo[1.1.1]pentanyl-[3-[[(1R,2R)-2-hydroxyindan-1-yl]carbamoyl]phenyl]methyl]-4,4-diethyl-6-oxo-hexahydropyrimidin-2-ylidene]ammonium; 2,2,2-trifluoroacetate], with 0.5 nM; and `CCC[C@@H](c1cccc(C(=O)N[C@H]2CCOc3ccccc32)c1)N1C(=N)NC(CC)(CC)CC1=O` [Example 13B, [1-[1-[3-[[(4S)-chroman-4-yl]carbamoyl]phenyl]butyl]-4,4-diethyl-6-oxo-hexahydropyrimidin-2-ylidene]ammonium; 2,2,2-trifluoroacetate], with 43.8 nM.
On the same count and under the same terms, to `CCC1(CC)CC(=O)N(Cc2cc(C#N)cc(C(=O)N[C@@H]3CC(C)(C)Oc4ccccc43)c2)C(=N)N1` (stereo in doubt) [Example 89A, [1-[[3-cyano-5-[(2,2-dimethylchroman-4-yl)carbamoyl]phenyl]methyl]-4,4-diethyl-6-oxo-hexahydropyrimidin-2-ylidene]ammonium; 2,2,2-trifluoroacetate] belongs 9.8 nM; to `N=C1N[C@@](CC2CC2)(c2ccccc2)CC(=O)N1Cc1cc(F)cc(C(=O)N[C@@H]2CCOc3ccccc32)c1` [Example 5B, [(4R)-1-[[3-[[(4R)-chroman-4-yl]carbamoyl]-5-fluoro-phenyl]methyl]-4-(cyclopropylmethyl)-6-oxo-4-phenyl-hexahydropyrimidin-2-ylidene]ammonium; 2,2,2-trifluoroacetate], 57.4 nM.
The same measure, in the same setting: to `CCC1(CC)CC(=O)N([C@@H](CCOC)c2cccc(C(=O)N[C@H]3C[C@H](C(F)(F)F)Oc4ccccc43)c2)C(=N)N1` [Example 132A, [[(2R,4S)-2-(trifluoromethyl)chroman-4-yl]carbamoyl]phenyl]propyl]-6-oxo-hexahydropyrimidin-2-ylidene]ammonium; 2,2,2-trifluoroacetate] belongs 59 nM.

The test is the same for the next values; noted with them: parasite growth measured by LDH assay after 72 hours at 37° C.; 0.7% rings, 2% haematocrit; read-out: EC50.
For `CCC1(CC)CC(=O)N(C(CC(OC)C(F)(F)F)c2cccc(C(=O)N[C@@H]3c4ccccc4C[C@H]3O)c2)C(=N)N1` (single isomer, unassigned) [Example 238A], the EC50 worked out at 1.94 nM.
Still for that read-out and setting: then `CCC1(CC)CC(=O)N([C@H](C)c2cccc(C(=O)N[C@@H]3c4ccccc4C[C@]3(C)O)c2)C(=N)N1` [Example 192B, 3-[(1R)-1-(4,4-diethyl-2-imino-6-oxo-hexahydropyrimidin-1-yl)ethyl]-N-[(1R,2S)-2-hydroxy-2-methyl-indan-1-yl]benzamide], with 2.7 nM; and `CC[C@]1(C)CC(=O)N(C(CCOC(F)F)c2cccc(C(=O)NC3c4ccccc4OC(C)(C)C3(C)O)c2)C(=N)N1` (single isomer, unassigned) [Example 240A], with 91.6 nM.

The test is the same for the next values; noted with them: parasite growth measured by LDH assay after 72 hours at 37° C.; 0.7% rings, 2% haematocrit; trifluoroacetate; read-out: EC50.
`CCC1(COC)CC(=O)N(Cc2cccc(C(=O)N[C@H]3CC(C)(C)Oc4ccccc43)c2)C(=N)N1` (stereo partly drawn) [Example 98B, [1-[[3-[[(4S)-2,2-dimethylchroman-4-yl]carbamoyl]phenyl]methyl]-4-ethyl-4-(methoxymethyl)-6-oxo-hexahydropyrimidin-2-ylidene]ammonium; 2,2,2-trifluoroacetate]: the EC50 came to 8.1 nM.
Same read-out and setting: then `C#CCC[C@H](c1cccc(C(=O)NC2CC3(CCC3)Oc3ccccc32)c1)N1C(=N)NC(CC)(CC)CC1=O` (stereo in doubt) [Example 211B, [4,4-diethyl-6-oxo-1-[(1R)-1-[3-[[(4R)-spiro[chromane-2,1′-cyclobutane]-4-yl]carbamoyl]phenyl]pent-4-ynyl]hexahydropyrimidin-2-ylidene]ammonium; 2,2,2-trifluoroacetate], with 0.5 nM; and `CCC1(CC)NC(=N)N(Cc2cc(F)cc(C(=O)N[C@H]3CCOc4ccccc43)c2)C(=O)C1C` (stereo partly drawn) [Example 43, [1-[[3-[[(4S)-chroman-4-yl]carbamoyl]-5-fluoro-phenyl]methyl]-4,4-diethyl-5-methyl-6-oxo-hexahydropyrimidin-2-ylidene]ammonium; 2,2,2-trifluoroacetate], with 7.2 nM; and `CCC1(CC)CC(=O)N(Cc2cccc(C(=O)N[C@@H]3c4ccccc4OC3(C)CO)c2)C(=N)N1` (stereo in doubt) [Example 187B, [4,4-diethyl-1-[[3-[[2-(hydroxymethyl)-2-methyl-3H-benzofuran-3-yl]carbamoyl]phenyl]methyl]-6-oxo-hexahydropyrimidin-2-ylidene]ammonium; 2,2,2-trifluoroacetate], with 19.3 nM.
